These results are taken from PubChem BioAssay (NCI).

Test systems include A498 renal; HOP-92 NSCLC; LOX IMVI melanoma; MALME-3M melanoma; MCF7 breast; NCI-H226 lung; OVCAR-5 ovarian; SF-539 CNS; SR leukemia; SK-MEL-2 melanoma.
Holding throughout (test): growth of human tumour cells (NCI), 48 h

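Test compounds were applied to cells in 96-well plates for 48 hours at 5 doses. GI50 = concentration required for 50% inhibition of growth. TGI is the concentration that stops growth completely.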

For `CC1(C)N=C(N)N=C(N)N1c1ccc(OCCCNC(=O)Nc2cccc(S(=O)(=O)F)c2)c(Cl)c1`, the GI50 in the test on A498 renal is 21.9 µM; in the test with HOP-92 NSCLC it was 3.06 µM; in the test with LOX IMVI melanoma, 2.66 µM; with MALME-3M melanoma, 42.8 µM; with MCF7 breast it was 3.82 µM; in the test on NCI-H226 lung it was 8.37 µM. Further, the figures for the GI50 in the test with OVCAR-5 ovarian, in the test with SF-539 CNS and in the test with SR leukemia were 3.98 µM, 4.78 µM and 0.637 µM, respectively. The TGI in the test on A498 renal, in the test with HOP-92 NSCLC, with LOX IMVI melanoma, in the test with MALME-3M melanoma, in the test with MCF7 breast and in the test on NCI-H226 lung was over 100 µM each time. The TGI with OVCAR-5 ovarian, in the test with SF-539 CNS and with SR leukemia was over 100 µM each time.
`Clc1cc(Cl)c(OCCCCCCN2CCNCC2)c(Cl)c1`: the GI50 in the test on A498 renal was 9.35 µM; with HOP-92 NSCLC, 2.32 µM; in the test with LOX IMVI melanoma, 1.75 µM; with MALME-3M melanoma it was 2.19 µM; with MCF7 breast, 1.89 µM; in the test on NCI-H226 lung it was 12.3 µM. Also, the GI50 is 2.82 µM in the test on OVCAR-5 ovarian, 2.27 µM in the test with SF-539 CNS, 5.52 µM in the test with SK-MEL-2 melanoma and 2.16 µM in the test with SR leukemia. In addition, the TGI in the test with A498 renal amounted to 22.6 µM; in the test on HOP-92 NSCLC, 7.64 µM; with LOX IMVI melanoma, 3.26 µM; with MALME-3M melanoma it was 5.06 µM; in the test on MCF7 breast, 4.2 µM; in the test on NCI-H226 lung, 30.8 µM. Moreover, the TGI in the test on OVCAR-5 ovarian came to 8.42 µM; in the test with SF-539 CNS, 5.71 µM; in the test on SK-MEL-2 melanoma it was 18.1 µM; with SR leukemia, 5.64 µM.
Regarding `Cc1ccc(C=C2C(Cl)=C(Cl)C(Cl)=C2Cl)cc1`, the GI50 in the test with A498 renal is 1.43 µM; in the test with HOP-92 NSCLC it was 1.33 µM; in the test with LOX IMVI melanoma it was 0.303 µM; with MALME-3M melanoma, 0.933 µM; in the test with MCF7 breast, 0.39 µM; in the test on NCI-H226 lung, 1.49 µM. The GI50 was 0.978 µM in the test with OVCAR-5 ovarian, 1.45 µM with SF-539 CNS, 1.9 µM in the test on SK-MEL-2 melanoma and 0.166 µM in the test with SR leukemia. In addition, the TGI in the test with A498 renal was found to be 2.91 µM; with HOP-92 NSCLC, 4.35 µM; with LOX IMVI melanoma, 0.959 µM; with MALME-3M melanoma, 2.62 µM; in the test with MCF7 breast, 2.37 µM; in the test with NCI-H226 lung it was 3.22 µM. Moreover, the TGI in the test on OVCAR-5 ovarian turned out to be 2.49 µM; in the test on SF-539 CNS, 2.81 µM; with SK-MEL-2 melanoma, 4.87 µM; with SR leukemia, 0.444 µM.
On to `Oc1c(Cl)cc(Cl)cc1/C=N/Nc1nnc(N/N=C/c2cc(Cl)cc(Cl)c2O)c2ccccc12`, for which the GI50 in the test with A498 renal is 2.19 µM; in the test with HOP-92 NSCLC it was 0.284 µM; with LOX IMVI melanoma, 0.225 µM; in the test with MALME-3M melanoma it was 0.68 µM; in the test with MCF7 breast it was 0.482 µM; in the test with NCI-H226 lung it was 0.402 µM. The GI50 with OVCAR-5 ovarian is 0.957 µM; in the test with SF-539 CNS, 0.258 µM; with SK-MEL-2 melanoma it was 0.77 µM; in the test on SR leukemia, 0.434 µM. Moreover, the TGI with A498 renal is over 100 µM; in the test with LOX IMVI melanoma, 0.586 µM; in the test with MALME-3M melanoma, over 100 µM; with MCF7 breast, over 100 µM; in the test with NCI-H226 lung, 3.04 µM; in the test with OVCAR-5 ovarian it was over 100 µM. For the same compound, the TGI in the test on SF-539 CNS was 0.64 µM; in the test on SK-MEL-2 melanoma it was over 100 µM; in the test on SR leukemia, over 100 µM.
As for `CN(C)CC(=O)Nc1ccc2ncnc(Nc3ccc(Oc4cccc(C(F)(F)F)c4)c(Cl)c3)c2c1`, the GI50 with A498 renal is 1.62 µM; with HOP-92 NSCLC it was 1.27 µM; in the test with LOX IMVI melanoma it was 1.73 µM; with MALME-3M melanoma, 1.68 µM; in the test on MCF7 breast it was 1.53 µM; in the test on OVCAR-5 ovarian it was 3.04 µM. Also, the values for the GI50 with SF-539 CNS, in the test on SK-MEL-2 melanoma and with SR leukemia were 1.73 µM, 2.04 µM and 2.46 µM, respectively. The TGI in the test on A498 renal is 4.92 µM; in the test on HOP-92 NSCLC, 3.55 µM; with LOX IMVI melanoma, 3.13 µM; with MALME-3M melanoma, 3.36 µM; with MCF7 breast it was 3.02 µM; in the test with OVCAR-5 ovarian it was 12.9 µM. In addition, the TGI in the test with SF-539 CNS turned out to be 3.18 µM; in the test on SK-MEL-2 melanoma, 4.37 µM; in the test with SR leukemia, 9.15 µM.
Consider `O=C(C=P(c1ccccc1)(c1ccccc1)c1ccccc1)CCl`, for which the GI50 in the test with A498 renal is 1.09 µM; in the test on HOP-92 NSCLC, 0.142 µM; in the test on LOX IMVI melanoma it was 0.353 µM; with MALME-3M melanoma it was 1.32 µM; in the test on MCF7 breast it was 0.403 µM; with NCI-H226 lung, 1.31 µM. Moreover, the GI50 with OVCAR-5 ovarian is 1.46 µM; in the test on SF-539 CNS, 1.28 µM; in the test with SK-MEL-2 melanoma, 1.79 µM; in the test with SR leukemia, 0.38 µM. For the same compound, the TGI in the test on A498 renal was determined as 2.46 µM; in the test on HOP-92 NSCLC it was 0.693 µM; in the test on LOX IMVI melanoma, 1.04 µM; with MALME-3M melanoma, 3.08 µM; in the test with MCF7 breast it was 1.93 µM; with NCI-H226 lung, 2.97 µM. The TGI came to 3.73 µM in the test with OVCAR-5 ovarian, 2.98 µM in the test with SF-539 CNS, 3.87 µM in the test with SK-MEL-2 melanoma and 10.5 µM in the test with SR leukemia.
In the case of `Cc1ccc2cccc(OC(=O)Nc3cccc(C(F)(F)F)c3)c2n1`, the GI50 in the test with A498 renal was 2.59 µM; with HOP-92 NSCLC, 2.21 µM; in the test on MALME-3M melanoma, 3.03 µM; with MCF7 breast, 2.26 µM; with NCI-H226 lung it was 3.61 µM; with OVCAR-5 ovarian, 6.44 µM. Besides, the GI50 in the test with SF-539 CNS was 5.42 µM; with SK-MEL-2 melanoma it was 3.47 µM; with SR leukemia, 5.6 µM. Further, the TGI with A498 renal was found to be 9.46 µM; in the test on HOP-92 NSCLC, 6.66 µM; in the test on MALME-3M melanoma, 10 µM; with MCF7 breast, 8.05 µM; with NCI-H226 lung, 14.1 µM; in the test on OVCAR-5 ovarian, 32.1 µM. For the same compound, the results for the TGI in the test with SF-539 CNS, with SK-MEL-2 melanoma and in the test on SR leukemia were 18.1 µM, 12.1 µM and over 100 µM, respectively.
